Earlier results on one molecule are cited in US20120263660A1, “Hair Loss Treatment” (POP TEST CORTISOL LLC, priority 2011, published 2012).

For one data set, the target named is T1, progesterone receptor (Homo sapiens, UniProt P06401).
T1 sequence (P06401 1-933): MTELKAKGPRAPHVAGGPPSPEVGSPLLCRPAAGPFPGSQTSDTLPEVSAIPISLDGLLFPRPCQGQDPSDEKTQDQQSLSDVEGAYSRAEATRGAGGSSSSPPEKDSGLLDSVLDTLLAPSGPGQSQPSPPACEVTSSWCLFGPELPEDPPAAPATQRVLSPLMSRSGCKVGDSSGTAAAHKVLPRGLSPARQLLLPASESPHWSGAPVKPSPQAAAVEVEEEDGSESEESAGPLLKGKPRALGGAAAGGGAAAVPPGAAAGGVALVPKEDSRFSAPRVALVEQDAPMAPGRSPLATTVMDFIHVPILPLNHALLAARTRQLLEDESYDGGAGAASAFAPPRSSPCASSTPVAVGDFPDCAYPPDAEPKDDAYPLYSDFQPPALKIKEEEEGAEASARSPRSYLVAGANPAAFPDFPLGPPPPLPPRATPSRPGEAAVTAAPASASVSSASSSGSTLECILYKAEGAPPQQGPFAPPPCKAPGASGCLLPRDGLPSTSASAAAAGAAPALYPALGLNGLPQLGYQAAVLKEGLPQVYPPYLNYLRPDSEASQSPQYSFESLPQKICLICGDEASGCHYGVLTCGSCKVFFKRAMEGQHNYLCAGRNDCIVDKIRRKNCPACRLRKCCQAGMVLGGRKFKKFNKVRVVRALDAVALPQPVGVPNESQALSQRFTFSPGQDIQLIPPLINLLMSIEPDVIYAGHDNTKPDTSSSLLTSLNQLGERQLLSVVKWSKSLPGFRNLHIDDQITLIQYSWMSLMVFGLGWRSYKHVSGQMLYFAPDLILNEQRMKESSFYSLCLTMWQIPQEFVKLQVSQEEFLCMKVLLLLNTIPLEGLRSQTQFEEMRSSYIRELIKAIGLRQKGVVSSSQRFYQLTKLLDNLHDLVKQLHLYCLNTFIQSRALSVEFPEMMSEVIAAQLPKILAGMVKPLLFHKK
Particulars: specificity for GR blockade.

For data set [1] the following is noted: disclosed in U.S. Pat. No. 6,011,025.
The conditions of data set [2]: all phase I and phase II clinical trials already performed.
For a further data set, the system named is estrogen receptor. Particulars: specificity for GR blockade.
The conditions of data set [3]: disclosed in U.S. Pat. No. 6,011,025. The source holds these as a separate data set.
The target in data set [4] is T2, glucocorticoid receptor [GR] (Homo sapiens, UniProt P04150).
T2 sequence (P04150 1-777): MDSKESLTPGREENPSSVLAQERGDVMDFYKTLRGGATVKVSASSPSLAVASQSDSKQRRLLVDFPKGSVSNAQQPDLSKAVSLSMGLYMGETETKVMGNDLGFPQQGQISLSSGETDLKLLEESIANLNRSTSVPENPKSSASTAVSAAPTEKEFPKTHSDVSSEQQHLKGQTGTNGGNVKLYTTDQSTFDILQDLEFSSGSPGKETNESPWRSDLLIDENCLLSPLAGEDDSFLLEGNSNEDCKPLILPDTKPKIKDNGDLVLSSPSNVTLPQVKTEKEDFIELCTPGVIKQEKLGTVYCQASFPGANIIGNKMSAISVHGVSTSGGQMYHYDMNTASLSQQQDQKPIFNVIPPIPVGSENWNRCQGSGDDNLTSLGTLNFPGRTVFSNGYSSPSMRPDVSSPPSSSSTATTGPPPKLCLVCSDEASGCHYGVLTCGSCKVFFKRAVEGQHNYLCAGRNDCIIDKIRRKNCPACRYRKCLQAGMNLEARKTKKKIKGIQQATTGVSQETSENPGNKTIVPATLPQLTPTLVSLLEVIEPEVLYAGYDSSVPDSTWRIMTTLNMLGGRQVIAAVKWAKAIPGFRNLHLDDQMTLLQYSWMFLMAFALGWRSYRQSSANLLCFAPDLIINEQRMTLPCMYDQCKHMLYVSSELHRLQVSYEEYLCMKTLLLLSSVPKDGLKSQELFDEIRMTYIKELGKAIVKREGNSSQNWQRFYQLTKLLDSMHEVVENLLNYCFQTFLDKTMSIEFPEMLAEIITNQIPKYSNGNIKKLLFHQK
The note with it: disclosed in U.S. Pat. No. 6,011,025.

On to `CC#C[C@]1(O)CC[C@H]2[C@@H]3CCC4=CC(=O)CCC4=C3[C@@H](c3ccc4c(c3)OCO4)C[C@@]21C` [ORG 34517], for which the “cross-binding to progesterone receptor” value on progesterone receptor was “without significant cross-binding”. Moreover, the progestagenic activity entry in data set [1] was “low”. In addition, the “significant toxicities and side effects” value in data set [2] is recorded as “none were identified”. Moreover, the “cross-binding to estrogen receptor” value in the data set on estrogen receptor is given as “without significant cross-binding”. Besides, the androgenic activity entry in data set [3] is on record as “low”. Besides, in data set [4], the GR binding affinity result is recorded as “high”.
